# In patent US9204653B2, “5-fluoro pyrimidine derivatives” (DOW AGROSCIENCES LLC, priority 2008, dated 2015):
# Where two headings read alike, the source gives them in different places.
# System: Mycosphaerella graminicola; Anamorph: Septoria tritici; Bayer Code SEPTTR
# Assay: Leaf blotch of wheat, foliar fungicide treatment, one day protectant (1DP) or three day curative (3DC)
# Type: in vivo, Septoria tritici on wheat plants (variety Yuma)
# Conditions: Zymoseptoria tritici, rating of percent disease control
# [1] = 24 h, one day protectant, read-out: SETTTR 1DP 25 ppm
# [2] = 24 h, one day protectant, read-out: SEPTTR 1DP 100 ppm
# [3] = 72 h, three day curative, read-out: SEPTTR 3DC 25 ppm
# [4] = 72 h, three day curative, read-out: SEPTTR 3DC 100 ppm
SMILES,pest or weed control at 25 ppm [1],pest or weed control at 100 ppm [2],pest or weed control at 25 ppm [3],pest or weed control at 100 ppm [4]
Fc1cnc(OCc2ccccc2)nc1/N=C/N1CCc2ccccc2C1 [Compound 679],76 to 100%,76 to 100%,76 to 100%,76 to 100%
COc1ccc(OC)c(COc2ncc(F)c(NSc3ccccc3[N+](=O)[O-])n2)c1 [Compound 680],0 to 25%,0 to 25%,26 to 50%,26 to 50%
Cc1ccc(COc2ncc(F)c(-n3ccnc3)n2)cc1 [Compound 681],76 to 100%,76 to 100%,76 to 100%,76 to 100%
Nc1nc(OCc2cc(Cl)nc(Cl)c2)ncc1F [Compound 682],76 to 100%,76 to 100%,76 to 100%,76 to 100%
Fc1cccc(COc2ncc(F)c(/N=C/N3CCOCC3)n2)c1 [Compound 684],76 to 100%,76 to 100%,76 to 100%,76 to 100%
COc1cc(COc2ncc(F)c(NSc3ccccc3[N+](=O)[O-])n2)cc(OC)c1 [Compound 685],0 to 25%,76 to 100%,0 to 25%,0 to 25%
Fc1ccc(COc2ncc(F)c(-n3ccnc3)n2)cc1 [Compound 688],76 to 100%,76 to 100%,76 to 100%,76 to 100%
Nc1nc(OCc2ccc(Cl)cc2)ncc1F [Compound 689],76 to 100%,76 to 100%,76 to 100%,76 to 100%
N#Cc1cccc(COc2ncc(F)c(NC(=O)OCc3ccccc3)n2)c1 [Compound 690],51 to 75%,76 to 100%,76 to 100%,76 to 100%
Cc1cc(C)c(COc2ncc(F)c(N)n2)cc1C [Compound 691],51 to 75%,76 to 100%,51 to 75%,76 to 100%
COc1cccc(COc2ncc(F)c(/N=C/N(C)C)n2)c1 [Compound 692],76 to 100%,76 to 100%,76 to 100%,76 to 100%
Nc1nc(OCc2cc(F)c(F)c(F)c2F)ncc1F [Compound 693],76 to 100%,76 to 100%,76 to 100%,76 to 100%
CCCCCCOc1ncc(F)c(NC(C)=O)n1 [Compound 695],0 to 25%,76 to 100%,0 to 25%,26 to 50%
CC(C)(C)c1ccc(COc2ncc(F)c(N)n2)cc1 [Compound 696],76 to 100%,76 to 100%,51 to 75%,76 to 100%
O=C(Nc1ccsc1)Nc1nc(OCCc2ccc(Cl)cc2)ncc1F [Compound 697],0 to 25%,0 to 25%,26 to 50%,26 to 50%
COc1ccc(COc2ncc(F)c(N)n2)c(Cl)c1OC [Compound 698],76 to 100%,76 to 100%,76 to 100%,76 to 100%
Nc1nc(OCc2cnccn2)ncc1F [Compound 699],76 to 100%,76 to 100%,51 to 75%,76 to 100%

SMILES,pest or weed control at 25 ppm [1],pest or weed control at 100 ppm [2],pest or weed control at 25 ppm [3],pest or weed control at 100 ppm [4]
Fc1ccc(COc2ncc(F)c(N/N=C/c3ccccc3Cl)n2)cc1 [Compound 700],0 to 25%,51 to 75%,26 to 50%,76 to 100%
Cc1ccc(COc2ncc(F)c(NNC3CCCCC3)n2)cc1 [Compound 701],0 to 25%,76 to 100%,0 to 25%,76 to 100%
CC[Si](CC)(CC)Nc1nc(OCc2ccc(OC)c(F)c2)ncc1F [Compound 702],76 to 100%,76 to 100%,76 to 100%,76 to 100%
O=C(Nc1nc(OCc2ccc(F)cc2)ncc1F)c1cccc(CBr)c1 [Compound 703],0 to 25%,26 to 50%,0 to 25%,0 to 25%
COc1cccc(COc2ncc(F)c(/N=C/N3CCOCC3)n2)c1 [Compound 704],76 to 100%,76 to 100%,76 to 100%,76 to 100%
Nc1nc(OCc2ccc(C(F)(F)F)cc2)ncc1F [Compound 705],76 to 100%,76 to 100%,51 to 75%,76 to 100%
CCCNC(=S)Nc1nc(OCc2cccc(C#N)c2)ncc1F [Compound 706],0 to 25%,76 to 100%,0 to 25%,51 to 75%
CCCCOc1cccc(COc2ncc(F)c(N)n2)c1 [Compound 708],76 to 100%,76 to 100%,76 to 100%,76 to 100%
COc1ccc(COc2ncc(F)c(NCOCc3ccccc3)n2)cc1F [Compound 709],0 to 25%,76 to 100%,0 to 25%,51 to 75%
Fc1ccccc1NC(=S)Nc1nc(OCc2cccs2)ncc1F [Compound 711],51 to 75%,76 to 100%,26 to 50%,76 to 100%
Nc1nc(OCc2ccccc2F)ncc1F [Compound 713],76 to 100%,76 to 100%,51 to 75%,76 to 100%
CC(=O)Nc1nc(OC(C)c2ccc(F)cc2)ncc1F (stereo not drawn) [Compound 714],76 to 100%,76 to 100%,76 to 100%,76 to 100%
Nc1nc(Oc2cccc([N+](=O)[O-])c2)ncc1F [Compound 715],26 to 50%,51 to 75%,0 to 25%,0 to 25%
Cc1cccc(Oc2ccc(COc3ncc(F)c(N)n3)cc2)c1 [Compound 716],76 to 100%,76 to 100%,76 to 100%,76 to 100%
Cc1ccc(CNc2nc(OCc3ccc(C)cc3)ncc2F)cc1 [Compound 717],51 to 75%,76 to 100%,76 to 100%,76 to 100%
C/C(=N\Nc1nc(OCc2ccc(C)cc2)ncc1F)c1ccc(C)o1 [Compound 718],26 to 50%,76 to 100%,26 to 50%,26 to 50%
